Results reported in ChEMBL document CHEMBL1134119, “Total synthesis of human chymase inhibitor methyllinderone and structure--activity relationships of its derivatives” (Bioorg Med Chem Lett, 2001).
pIC50: −log10 of the molar value.

How the values were obtained:
Chymase [1] = target: T1, Chymase (Homo sapiens, UniProt P23946); experiment: Compound was evaluated for its inhibitory activity against human Serine protease chymase
T1 sequence (P23946 whole entry): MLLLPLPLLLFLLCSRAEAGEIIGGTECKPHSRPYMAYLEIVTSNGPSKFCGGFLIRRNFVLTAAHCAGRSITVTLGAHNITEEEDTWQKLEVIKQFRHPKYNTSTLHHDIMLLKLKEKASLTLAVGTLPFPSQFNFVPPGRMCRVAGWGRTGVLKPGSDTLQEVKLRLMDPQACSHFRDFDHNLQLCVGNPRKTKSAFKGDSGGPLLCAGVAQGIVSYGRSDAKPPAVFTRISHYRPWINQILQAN

Chymase [2] = target: T1, Chymase; experiment: Compound was evaluated for its inhibitory activity against human chymase

Row | pIC50 (Chymase [1]) | pIC50 (Chymase [2]) | Structure (SMILES)
1 | 4.40 |  | COC(CCc1ccccc1)=C1C(=O)C=CC1=O
2 | 4.52 |  | COC(/C=C/c1ccccc1)=C1C(=O)C(OC)=C(OC)C1=O
3 |  | < 3.00 | COC(C)=C1C(=O)C=CC1=O
